The results in this text go back to patent US20220218714A1, “METHOD OF TREATING CANCER” (Epizyme, Inc., priority 2013, published 2022).

Each structure is given as a SMILES string.

Assay [1] deals with HS-SY-II cells. The assay is described as follows: Adherent cell line 14-day long-term proliferation assay (CellTiter-Glo). The format is cell-based, human. The procedure: (§1) 96-well plating for 7 day assay: For each adherent cell line, plated cells in a volume of 100 μL in 96-well plates, to be treated in triplicate, either in the evening (to treat with compound the following day) or in morning (to treat with compound in the evening), to allow cells to attach to plates before compound treatment.
(§2) 6-well plates to be split for 7-14 day assay: Plated 2mL of cells at the correct density in each well of the 6-well plate. Calculated the correct density from the 96-well plate growth curve by multiplying the 96-well density by 30. The factor 30 came from growth area of the 6-well plate divided by the growth area of the 96-well plate (9.5cm^2/0.32cm^2=29.7, rounded up to 30), which corresponds to 30-fold more surface area in a 6-well vs. a 96-well plate.
(§3) Day 0: Treated with compound or DMSO by removing media and adding back either […] (for 96-well plate) or 2 mL (for 6-well plate) media with the correct dilutions of compound/DMSO. Table 1 includes an example of 96-well plate map. Plates were incubated for 96 hours.
(§4) Read one 96-well plate with CellTiter-Glo®, for a Day 0 reading (media change not necessary for this plate).
(§5) Day 4: Read one 96-well plate with CellTiter-Glo® for a Day 4 reading (media change not necessary for this plate before reading). Replaced media with fresh media containing compound on Day 4 in 96-well plates and 6-well plates.
(§6) Day 7: read final 96-well plate with CellTiter-Glo®.
(§7) Counted individual wells of 6-well plates, and replated cells to initial plating density in 96-well plates, as described above.
(§8) Repeated steps for Days 0-7 for Days 7-14 of the proliferation assay.
(§9) Particularly, approximately 12 hours before compound treatment, HS-SY-II or SW982 cells were plated at the density of 24,000 cells/well and 7,500 cells/well, respectively in 6-well plates. On day 0, cells were treated with either DMSO or compound starting at 10 μmol/L and decreasing in fourfold dilutions. On day 7, the cells in 6-well plates were trypsinized, counted by TC10 automated cell counter (Bio-Rad, Richmond, Calif.) and replated at the density of 800 cells/well and 250 cells/well for HS-SY-II and SW982, respectively in 96-well plates in triplicate. The cells were allowed to adhere to the plate overnight, and treated with either DMSO or compound as on Day 0. On days 0, 7, 11, and 14, cell viability was determined by CellTiter-Glo® Luminescent Cell Viability Assay (Promega) with EnVision 2103 Multilabel Reader (Perkin-Elmer, Wellesley, Mass.). Compound/media was changed with new one on Day 4 and 11. The ratios of the measured values on Days 7, 11, and 14 to that of day 7 were used to plot proliferation from day 7 to day 14, and to calculate the IC50 values on Day 14. […]

Assay [2] relates to SW982 cells. Described as above. In kind it is cell-based, human. As for the experimental part: as §1, §2, §3, §4, §5, §6, §7, §8, §9
For assay [3], the system named is HS-SY-II cells. The assay is described as follows: Gene expression changes in vitro (RT-PCR, normalized to GAPDH). In kind it is cell-based, human. To be noted: HS-SY-II in vitro culture. The procedure:
ATF3, EGR1, CDKN2A and GAPDH expression were analyzed by using the TaqMan Gene Expression Assays (Life technologies, 4331182) and the TaqMan Probes (Hs00231069_ml, Hs00152928_ml, Hs00233365_ml, and Hs99999905_ml, respectively).

The subject of assay [4] is SW982 cells. To be noted: SW982 in vitro culture.

Turning to `CCN(c1cc(-c2ccc(CN3CCOCC3)cc2)cc(C(=O)NCc2c(C)cc(C)[nH]c2=O)c1C)[C@H]1CC[C@H](N(C)C)CC1` [Compound E], the entries for the “sensitivity (cell proliferation / viability)” value in assay [1] and in assay [2] were “high sensitivity” and “did not”, respectively.

On to `CCN(c1cc(-c2ccc(CN3CCOCC3)cc2)cc(C(=O)NCc2c(C)cc(C)[nH]c2=O)c1C)[C@H]1CC[C@H](N(C)C)CC1` [Compound C], for which, in assay [3], the “ATF3 and EGR1 expression” value is listed as “upregulated”; the CDKN2A expression entry was “Dose- and time-dependent CDKN2A upregulation”. The “ATF3 and EGR1 expression” value in assay [4] is listed as “not in SW982”.
